Results: patent US7781444B2, “Pharmaceutical composition for treating fecal incontinence and anal itch” (S.L.A. Pharma AG, priority 1996, dated 2010)

Tests used:
[1] = test system: internal anal pressure, patients with incontinence or constipation; experiment: NΩ-Nitro-L-arginine ointment in and around the anal canal, manometry before and after application; type: in vivo, human; settings: 1% ointment, twelve patients
Procedure: A 1% ointment was prepared by mixing […] of NΩ-Nitro-L-arginine (obtained from Fluka—part of the Sigma group) in 19.8 g of unguentum merk base.
The ointment was then applied in and around the anal canal of twelve patients and the interanal pressure measured by manometry (as discussed previously) before and shortly after application of the ointment.

[2] = test system: maximum resting anal pressure, patients with passive faecal incontinence; experiment: Patient group with passive faecal incontinence, intraanal 10% phenylephrine, manometry
[3] = test system: maximum resting anal pressure, healthy volunteers; experiment: Healthy volunteer group, intraanal 10% phenylephrine, manometry; settings: 0.5 ml 10% (50 mg) intraanal
[4] = test system: patients with ileo-anal pouch and fecal incontinence; experiment: Randomised placebo controlled cross over trial of 10% phenylephrine cream in patients with ileo-anal pouch; type: in vivo, human
Procedure: A prospective randomised placebo controlled cross over trial was undertaken to evaluate the use of phenylephrine 10% topical cream (according to examples 2a and 3) for treatment of fecal incontinence in patients with ilco-anal pouch.
10 Patients are mainly troubled by nocturnal incontinence only, and 2 have both daytime and nocturnal incontinence.
Of the 10 completed studies, there were 7 women and 3 men, age range (34-67). Anorectal manometry was performed and laser doppler fowmetry on all patients. Incontinence score was determined. All these outcome measures were repeated after treatment with both trial creams (phenylephrine and placebo).

[5] = test system: resting anal sphincter pressure, human volunteers; experiment: Topical phenylephrine gel dose ranging in volunteers: resting anal sphincter pressure and anodermal blood flow; type: in vivo; settings: for rise in mean resting anal sphincter pressure (MRP): topical, twelve volunteers
Procedure: A composition of base gel had the following composition: carmellose sodium 6 g, polyethylene glycol 30 ml, methylhydroxybenzoate 150 mg, propylhydroxybenzoate 15 mg, made up to volume with distilled water (pH4).
Various amounts of phenylephrine was added at 5%, 10%, 20% and 30% w/w to form various compositions for dose ranging studies (FIG. 2).
Twelve human volunteers aged 21 to 53 (mean 35) were studied on 4 occasions. Measurements of resting anal sphincter pressure and anodermal blood flow (using a laser doppler flowmeter) were taken before and after topical application of increasing concentrations of phenylephrine gel according to example 3 (supplied by Slaco Pharma (UK) Ltd) to the anus. Readings were taken through the day after a single application in order to determine the duration of effect.

anal resting pressure = experiment: Phenylephrine ointment applied to anal margin, anal manometry; type: in vivo, human; settings: ointment in yellow soft paraffin, up to approximately 500 mg 10% ointment (50 mg of phenylephrine)
Procedure: Preparations of commercially available ophthalmic 10% phenylephrine hydrochloride (Minims) solution were administered intraanally with the subject in the left lateral position.

[6] = test system: maximum resting anal pressure, single healthy volunteer; experiment: Dose response study in single volunteer, intraanal phenylephrine solution, manometry
[7] = test system: patients with idiopathic passive fecal incontinence; experiment: Randomised placebo controlled cross over trial of 10% phenylephrine cream in idiopathic passive fecal incontinence; type: in vivo, human
Procedure: A prospective randomised placebo controlled cross over trial was undertaken to evaluate the use of 10% phenylephrine topical cream (according to examples 3 and 4) for treatment of idiopathic passive fecal incontinence.
30 Patients completed the study. All patients were assessed by endoanal ultrasound as well as anorectal physiology (to determine maximum resting anal pressure) and laser doppler flowmetry prior to treatment. The latter two measurements are repeated after a 3 week trial of the active agent (phenylephrine 10%) and placebo ‘Incontinence scores’ are determined before and after each treatment.

[8] = test system: minor incontinence after ileoanal anastomosis; settings: Surgery 1990; 107: p 311-315; cited from earlier work
[9] = topical 10% phenylephrine cream

NC(=NCCC[C@H](N)C(=O)O)N[N+](=O)[O-] [NΩ-Nitro-L-arginine]
effect on resting internal anal sphincter pressure (in words) [1]: increase the resting internal an1 sphincter pressure

CNC[C@H](O)c1cccc(O)c1 [phenylephrine]
median maximum resting pressure after instillation ([2]; 0.5 ml 10% (50 mg) intraanal, ten patients, pre median 25, post range 20-80, 5.5 KPa, p=0.39): 55 cm H2O | patients demonstrating a rise in anal pressure ([2]; of ten patients, two showed a fall, one no change): Seven | maximum resting pressure after application (median) ([3]; ten healthy volunteers, pre median 110, post range 120-210, 17.5 KPa, p<0.05): 180 cm H2O | time increased pressure was maintained (duration of the recording, median) ([3]; range 14-31 minutes): ≥ 23 min | patients with significant improvement of symptoms ([4]; 6/10 patients, phenylephrine 10% compared to placebo): 60% | improvement of incontinence scores (mean) ([4]; after phenylephrine 10%, 3% after placebo): 45% | increase in mean resting anal sphincter pressure compared to baseline ([4]; in the improved patients, after phenylephrine 10%, -8% on placebo, p<0.005): 29% | differences in anodermal blood flow ([4]; laser doppler flowmetry): No differences | patients with objective improvement (anal sphincter pressure) ([4]; of the 7 improved patients): 6 patients | patients with no improvement ([4]; phenylephrine 10% cream): 3/10 | mean subjective improvement in symptoms reported by patients ([4]; phenylephrine 10% cream, 14% after placebo, p<0.01): 83% | improvement of incontinence score, one patient ([4]; single patient without measurable pressure increase): 47% | subjective improvement, one patient ([4]; single patient, after phenylephrine compared to placebo): 75% | anal sphincter pressure, one patient ([4]; single patient, phenylephrine 10% cream): no measurable increase | patients with improvement of symptoms of incontinence (summary) [4, 9]: 7/10 | rise in mean resting anal sphincter pressure (MRP) ([5]; 5% phenylephrine gel, p 0.04): 6% | duration of action of a single application (median) ([5]; 10% phenylephrine gel): 7 (range 6 to 8) hours | rise in mean resting anal sphincter pressure (MRP) ([5]; 10% phenylephrine gel, versus pre-treatment): 33% | post treatment MRP ([5]; 10% phenylephrine gel, pre-treatment 85±2, P<0.0001): 127±12 cmH2O | response of MRP at concentrations higher than 10% ([5]; higher concentrations of phenylephrine gel (20%, 30% w/w)): no additional response | changes in anodermal blood flow ([5]; laser doppler flowmeter, topical phenylephrine gel): No notable changes | effect of ointment applied to the anal margin (anal resting pressure): no effect | increase in maximum resting pressure ([6]; 0.5 ml 0.1% (0.5 mg) intraanal): no significant increase | increase in maximum resting pressure ([6]; 0.5 ml 0.5% (2.5 mg) intraanal): no significant increase | increase in maximum resting pressure ([6]; 0.5 ml 1% (5 mg) intraanal): no significant increase | increase in maximum resting pressure ([6]; 0.5 ml 5% (25 mg) intraanal): no significant increase | resting pressure after instillation ([6]; 0.5 ml 10% (50 mg) into the anal canal, from 120 cm H2O before (12-21 KPa)): 210 cm H2O | time over which increase in resting anal pressure was evident (continuous recording) ([6]; 0.5 ml 10% (50 mg) intraanal): ≥ 25 min | resting anal pressure 13 hours later ([6]; 0.5 ml 10% (50 mg) intraanal, manometry repeated at 13 hours): returned to pre-treatment level | mean resting pressure post phenylephrine ([7]; 10% phenylephrine, from 62 pre, no significant change): 58 cmH2O | incontinence score (mean) after treatment ([7]; 10% phenylephrine, improved from mean of 14): 10 | change in anodermal blood flow ([7]; laser doppler flowmetry, after 10% phenylephrine): no significant change | patients with significant subjective improvement of symptoms ([7]; three of 30 patients, 10% cream for 3 weeks, versus baseline and placebo): 10% | patients with subjective improvement of symptoms (summary) [7, 9]: 3/30

CCCC(CCC)C(=O)[O-].[Na+] [sodium valproate]
treatment of minor incontinence after ileoanal anastomosis [8]: useful
